{"source": "patent US8889638B2", "about": "“Stimulus-triggered prodrugs” (The Regents of the University of California, priority 2010, dated 2014)", "key": {"[1]": {"experiment": "Acid stability in 0.1 M HCl (absorption spectra)", "assay_type": "physicochemical", "conditions": "0.1 M HCl over 24 h", "protocol": "To examine the stability of compound 8 towards acid hydrolysis, the absorption spectra of a 0.05 mM solution of 8 in a 0.1 M aqueous solution of HCl was collected. Spectra were collected at room temperature every hour for a 24 h time period. No change in the spectra was observed (FIG. 11)."}, "[2]": {"biological_target": "T1, MMP-8 (catalytic domain, human, recombinant) (Homo sapiens, UniProt P22894)", "T1 construct": "MMP-8 (catalytic domain, human, recombinant); purchased BIOMOL International", "T1 sequence (P22894 100-262 limits assumed)": "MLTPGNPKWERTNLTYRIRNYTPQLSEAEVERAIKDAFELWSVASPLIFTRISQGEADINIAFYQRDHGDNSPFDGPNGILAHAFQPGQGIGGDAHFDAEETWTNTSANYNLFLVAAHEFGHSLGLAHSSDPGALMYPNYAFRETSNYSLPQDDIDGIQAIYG", "experiment": "MMP-8 fluorescence-based inhibition assay with and without β-glucosidase", "assay_type": "biochemical", "protocol": "MMP-9 (catalytic domain, human, recombinant), MMP-8 (catalytic domain, human, recombinant), and the assay kit were purchased from BIOMOL International. The assays were carried out according to the procedure provided with the kit. MMP activity was measured in 96-well plates using a Bio-Tek Flx 800 fluorescent plate reader. The ZBGs and their protected analogs were dissolved in DMSO and diluted in HEPES buffer (50 mM, pH 7.5) to a concentration of 10 mM for 1-2, 40 mM for 3-4, and 1.25 mM for 5-6. Each well contained 20 μL, of MMP-9 (0.45 U/mL), inhibitor (10 μL, of 1-6), 5 μL, of β-glucosidase (1 U/μL) when used, and buffer for a total volume of 99 μL. These were incubated for 1 h at 37° C. […] The reaction was initiated by the addition of 1 μL (400 μM) of the fluorescent substrate (Mca-Pro-Leu-Gly-Leu-Dpa-Ala-Arg-NH2 where Mca=(7-methoxycoumarin-4-yl)-acetyl and Dpa=N-3-(2,4-dinitrophenyl)-L-α-β-diaminopropionyl)) and kinetic activity was measured every minute for 30 min with excitation and emission wavelengths at 335 nm and 405 nm, respectively. Enzyme activity with inhibitor was calculated with respect to the control experiment (no inhibitor present). […]\nIC50 values were obtained for compounds 1-8 against MMP-9 and for compounds 7 and 8 against MMP-8. […] Enzyme activity with inhibitor was calculated with respect to the control experiment (no inhibitor present). […]"}}}
{"smiles": "O=C(NCc1ccc(-c2ccccc2)cc1)c1cccc(=O)n1O[C@@H]1O[C@H](CO)[C@@H](O)[C@H](O)[C@H]1O", "note": "[Compound 8, N-(Biphenyl-4-ylmethyl)-6-oxo-1-(β-D-glucopyranosyloxy)-1,6-dihydropyridine-2-carboxamide]", "values": [{"measurement": "cleavage under acidic conditions", "setting": "[1]", "result": "not cleaved"}, {"measurement": "inhibition at 0.15 µM", "setting": "[2]; 150 nM, read-out: inhibition of MMP-8 after activation with β-glucosidase", "result": 33, "unit": "%"}, {"measurement": "increase in activity upon enzymatic activation", "setting": "[2]; MMP-8, with vs without β-glucosidase", "result": "> 1000", "unit": "fold"}]}
